Results on eleven molecules are retold here after US5354778A, “Antitumor compositions and methods of treatment” (priority 1993, dated 1994).

One series has as its system 6C3HED lymphosarcoma. The series is described as follows: in vivo activity against 6C3HED lymphosarcoma (Gardner lymphosarcoma, GLS) transplanted in C3H mice, oral. Conditions: for Toxic/Total (number of mice which died during test period/total number of mice in test group): 6C3HED tumor-bearing C3H mice; for inhibition in vivo at 150 mg/kg / inhibition in vivo at 300 mg/kg: Mus musculus, 6C3HED, po, 192 h, read-out: % Tumor Inhibition; for % Tumor Inhibition: 6C3HED tumor, C3H mice. As for the experimental part: The compounds were tested in C3H mice bearing a 6C3HED lymphosarcoma, also known as the Gardner lymphosarcoma (GLS). The 6C3HED lymphosarcoma was obtained from the Division of Cancer Treatment, National Cancer Institute, Tumor Bank, maintained at E. G. and G. Mason Research (Worcester, Mass.). First passage tumor was stored in liquid nitrogen using standard techniques. The transplanted tumor was reestablished from the Tumor Bank every six months or as needed. The tumor was maintained by serial passage twice weekly in C3H mice.
In the procedure the tumor was removed from passage animals and minced into 1- to 3-mm square fragments using sterile techniques. Tumor pieces were checked for sterility using both Antibiotic Medium 1 and Brain Heart Infusion (Difco, Detroit, Mich.). Recipient mice were shaved and tumor pieces were implanted subcutaneously in the auxiliary region by trocar. Drug therapy on the appropriate schedule was initiated on the day after tumor implant. The compound being tested was mixed with 2.5 weight % of a polyoxyethylated oil known as "Emulphor EL-620" surfactant from GAF Chemicals Corporation (1:40 dilution of Empulphor in saline). All animals were weighed at the beginning and end of administration of the subject compounds. Food and water were provided ad libitum. The drug was administered orally in 0.5 ml of 2.5% Emulphor. Unless otherwise indicated, the compound was administered once per day for eight days. The tumor was measured the day after treatment ended with two dimensional measurements (width and length) of the tumor taken using Vernier calipers. Tumor weights were calculated from these measurements using the following formula:
(tumor weight in mg)=(width in mm)^2 ×(length in mm)/2
At least one control group of an equal number of mice was treated with the same volume of 2.5% Emulphor only. The percent inhibition was calculated by subtracting the ratio of the mean tumor size of the test group relative to the control group from 1 and multiplying the result by 100.
The results of administering some of the present compounds orally (unless otherwise indicated) to mice bearing a 6C3HED tumor are provided in the Table. In the Table, column 1 gives the example number corresponding to the preparation of the particular compound, column 2 provides the dose level, column 3 lists the percent inhibition of tumor growth, and column 4 gives the number of mice which died relative to the total number of animals in the group.

The next series deals with CCRF-CEM cells. The series is described as follows: in vitro cytotoxicity against CCRF-CEM cells (50% inhibition of growth). The class given is cell-based, human. The following applies: 72 h incubation; for IC50: Homo sapiens, CCRF-CEM. As for the experimental part:
The in vitro CCRF-CEM data reported in column 5 of the Table was obtained using CCRF-CEM cells, a human leukemia cell line, (Foley et al., Cancer, 1965, 18, 522) were grown as previously described (Grindey, et al., J. Mol. Pharmacol., 1979, 16, 601) both references incorporated herein by reference. Dose-response curves were generated for various compounds to determine the concentration required for 50% inhibition of growth (IC50). Cluster plates were prepared in duplicate with the compound at various concentrations. Test compounds were dissolved initially in DMSO at a concentration of 4 mg/mL and further diluted with solvent to the desired concentration. Cells in Roswell Park Memorial Institute 1640 media supplemented with 10% dialyzed fetal bovine serum, and 25 mM HEPES buffer were added to the well an a final concentration of 4.8×10^4 cells/well in a total volume of 2.0 mL. After 72 h of incubation (95% air, 5% CO2), cell numbers were determined on a ZBI Coulter counter. Cell number for indicated controls at the end of incubation was usually (4-6)×10^5 cells/well.

[1] abbreviates: 150 mg/kg orally daily for eight days.
The mark [2] stands for this setting: 300 mg/kg orally daily for eight days.

Values after ≈ are worked out from the molar mass of the structure shown.

As usually defined, the IC50 is the concentration that inhibits the measured activity by half. Consider `Cc1cc(S(=O)(=O)NC(=O)Nc2ccc(Cl)cc2)cc(C)c1C` [Example 1, N-[[(4-Chlorophenyl)amino]carbonyl]-3,4,5-trimethylbenzene sulfonamide], for which the “Toxic/Total (number of mice which died during test period/total number of mice in test group)” value (shortened to “Toxic/Total”) with 6C3HED lymphosarcoma (setting [1]) is 0/10. Also, the “Toxic/Total” value with 6C3HED lymphosarcoma (setting [2]) was 0/10. Besides, in the series with 6C3HED lymphosarcoma, the inhibition in vivo at 150 mg/kg amounted to 99% and the inhibition in vivo at 300 mg/kg stood at 100%. Moreover, 14.8 µg/mL (≈ 41.9 µM) corresponded to half-maximal inhibition in the series with CCRF-CEM cells (IC50).
With `Cc1cc(S(=O)(=O)NC(=O)Nc2ccc(Br)cc2)cc(C)c1C` [Example 2, N-[[(4-Bromomhenyl)amino]carbonyl]-3,4,5-trimethylbenzenesulfonamide], the “Toxic/Total” value in the series with 6C3HED lymphosarcoma (setting [1]) is 1/10. Further, the “Toxic/Total” value in the series on 6C3HED lymphosarcoma (setting [2]) is given as 8/10. Besides, in the series with 6C3HED lymphosarcoma, the inhibition in vivo at 150 mg/kg was 99% and the inhibition in vivo at 300 mg/kg amounted to 99%. In the series with CCRF-CEM cells, this molecule yielded a half-maximal inhibitory concentration (IC50) above 20 µg/mL.
Take `Cc1cc(S(=O)(=O)NC(=O)Nc2ccc(C(F)(F)F)cc2)cc(C)c1C` [Example 3, N-[[(4 -Trifluoromethylphenyl)amino]carbonyl]-3,4,5-trimethylbenzenesulfonamide]: the “Toxic/Total” value with 6C3HED lymphosarcoma (setting [1]) is recorded as 0/10. Further, in the series on 6C3HED lymphosarcoma (setting [2]), the “Toxic/Total” value is 4/10. In the series on 6C3HED lymphosarcoma, the inhibition in vivo at 150 mg/kg worked out at 100% and the inhibition in vivo at 300 mg/kg was 100%. This molecule displayed an IC50 in the series with CCRF-CEM cells above 20 µg/mL.
Consider `Cc1cc(S(=O)(=O)NC(=O)Nc2ccc(Cl)c(Cl)c2)cc(C)c1C` [Example 4, N-[[(3,4-Dichlorophenyl)amino]carbonyl]-3,4,5-trimethylbenzenesulfonamide], for which the “Toxic/Total” value is 0/10 with 6C3HED lymphosarcoma (setting [1]) and 1/10 in the series with 6C3HED lymphosarcoma (setting [2]). Also, in the series on 6C3HED lymphosarcoma, the inhibition in vivo at 150 mg/kg is 38%. In the series with 6C3HED lymphosarcoma, the inhibition in vivo at 300 mg/kg turned out to be 74%. In the series on CCRF-CEM cells, this molecule returned an IC50 of 13.5 µg/mL (≈ 34.9 µM).
For the molecule `O=C(Nc1ccc(Cl)cc1)NS(=O)(=O)c1cc(Cl)c(Cl)c(Cl)c1` [Example 6, N-[[(4-Chlorophenyl)amino]carbonyl]-3,4,5-trichlorobenzene sulfonamide], the “Toxic/Total” value in the series on 6C3HED lymphosarcoma (setting [1]) is 0/10; in the series on 6C3HED lymphosarcoma (setting [2]) it was 3/10. Also, the inhibition in vivo at 150 mg/kg with 6C3HED lymphosarcoma worked out at 99%. Further, the inhibition in vivo at 300 mg/kg in the series on 6C3HED lymphosarcoma came out at 99%. The molecule further displayed an IC50 in the series with CCRF-CEM cells above 20 µg/mL.
Take `Nc1c(Cl)cc(S(=O)(=O)NC(=O)Nc2ccc(Cl)cc2)cc1Cl` [Example 7, N,[[(4-Chlorophenyl)amino]carbonyl]-4-amino-3,5-dichlorobenzenesulfonamide]: the figures for the “% Tumor Inhibition” value in the series on 6C3HED lymphosarcoma (setting [1]) and with 6C3HED lymphosarcoma (setting [2]) were 95% and “Toxic”, respectively. For the same molecule, the “Toxic/Total” value with 6C3HED lymphosarcoma (setting [1]) is on record as 0/10; with 6C3HED lymphosarcoma (setting [2]), 10/10. The “in vitro (CCRF-CEM) IC50” value in the series with CCRF-CEM cells is above 20 µg/mL.
For the molecule `Cc1cc(S(=O)(=O)NC(=O)Nc2ccc(Cl)cc2)cc(C)c1Cl` [Example 12, N-[[(4-Chlorophenyl)amino]carbonyl]-4-chloro-3,5-dimethylbenzenesulfonamide], the “Toxic/Total” value in the series with 6C3HED lymphosarcoma (setting [1]) is recorded as 0/10; with 6C3HED lymphosarcoma (setting [2]), 1/10. Also, in the series on 6C3HED lymphosarcoma, the inhibition in vivo at 150 mg/kg came to 44%. Also, the inhibition in vivo at 300 mg/kg in the series on 6C3HED lymphosarcoma worked out at 84%. The molecule further gave an IC50 in the series with CCRF-CEM cells of 15 µg/mL (≈ 40.2 µM).
On to `CN(C)c1c(Cl)cc(S(=O)(=O)NC(=O)Nc2ccc(Cl)cc2)cc1Cl` [Example 14, N-[[(4-Chlorophenyl)amino]carbonyl]-4-(N,N,dimethylamino)-3,5-dichlorobenzene-sulfonamide], for which, in the series with 6C3HED lymphosarcoma (setting [1]), the “Toxic/Total” value was 1/10. Also, in the series with 6C3HED lymphosarcoma (setting [2]), the “Toxic/Total” value is recorded as 0/10. Moreover, in the series on 6C3HED lymphosarcoma, the inhibition in vivo at 150 mg/kg came to 50% and the inhibition in vivo at 300 mg/kg was found to be 93%. In the series on CCRF-CEM cells, this molecule came in with an IC50 of 17 µg/mL (≈ 40.2 µM).
In the same order, the values of `COc1c(C)cc(S(=O)(=O)NC(=O)Nc2ccc(Cl)cc2)cc1C` [Example 15, N-[[(4-Chlorophenyl)amino]carbonyl]-3,5-dimethyl-4-methoxybenzesulfonamide] are 1/10, 0/10, 55%, 87% and 16.5 µg/mL (≈ 44.7 µM).
In the case of `COc1cc(S(=O)(=O)NC(=O)Nc2ccc(Cl)cc2)cc(OC)c1OC` [Example 16, N-[[(4-Chlorophenyl)amino]carbonyl]-3,4,5-trimethoxylbenzenesulfonamide], the “Toxic/Total” value with 6C3HED lymphosarcoma (setting [1]) and with 6C3HED lymphosarcoma (setting [2]) was 0/10 throughout. In addition, the inhibition in vivo at 150 mg/kg in the series on 6C3HED lymphosarcoma is 6%. Besides, the inhibition in vivo at 300 mg/kg with 6C3HED lymphosarcoma is 35%. This molecule also returned a half-maximal inhibitory concentration (IC50) in the series on CCRF-CEM cells above 20 µg/mL.
Turning to `CNc1c(Br)cc(S(=O)(=O)NC(=O)Nc2ccc(Cl)cc2)cc1Br` [Example 18, N-[[(4-Chlorophenyl)amino]carbonyl]-3,5-dibromo-4-(N-methylamino)benzenesulfonamide], in the series with 6C3HED lymphosarcoma (setting [1]), the “Toxic/Total” value is on record as 1/10. Further, in the series on 6C3HED lymphosarcoma (setting [2]), the “Toxic/Total” value is 0/10. Besides, in the series with 6C3HED lymphosarcoma, the inhibition in vivo at 150 mg/kg was determined as 26% and the inhibition in vivo at 300 mg/kg came to 47%. Further, the half-maximal inhibitory concentration (IC50) with CCRF-CEM cells turned out to be 19.3 µg/mL (≈ 38.8 µM).
